Measurements taken from BindingDB's records for PubMed 39722476 (Nanjing University of Chinese Medicine).

Target: Methylosome protein 50/Protein arginine N-methyltransferase 5 (Homo sapiens, UniProt O14744+Q9BQA1)
Assay: Inhibition of recombinant N-terminal FLAG-tagged human full-length PRMT5/full length human MEP50 extracted from baculovirus expression system using [3H]-SAM as substrate preincubated for 15 mins followed by substrate addition and measured after 60 mins by multimode plate reader analysis

Chain of Methylosome protein 50/Protein arginine N-methyltransferase 5 (O14744 whole entry): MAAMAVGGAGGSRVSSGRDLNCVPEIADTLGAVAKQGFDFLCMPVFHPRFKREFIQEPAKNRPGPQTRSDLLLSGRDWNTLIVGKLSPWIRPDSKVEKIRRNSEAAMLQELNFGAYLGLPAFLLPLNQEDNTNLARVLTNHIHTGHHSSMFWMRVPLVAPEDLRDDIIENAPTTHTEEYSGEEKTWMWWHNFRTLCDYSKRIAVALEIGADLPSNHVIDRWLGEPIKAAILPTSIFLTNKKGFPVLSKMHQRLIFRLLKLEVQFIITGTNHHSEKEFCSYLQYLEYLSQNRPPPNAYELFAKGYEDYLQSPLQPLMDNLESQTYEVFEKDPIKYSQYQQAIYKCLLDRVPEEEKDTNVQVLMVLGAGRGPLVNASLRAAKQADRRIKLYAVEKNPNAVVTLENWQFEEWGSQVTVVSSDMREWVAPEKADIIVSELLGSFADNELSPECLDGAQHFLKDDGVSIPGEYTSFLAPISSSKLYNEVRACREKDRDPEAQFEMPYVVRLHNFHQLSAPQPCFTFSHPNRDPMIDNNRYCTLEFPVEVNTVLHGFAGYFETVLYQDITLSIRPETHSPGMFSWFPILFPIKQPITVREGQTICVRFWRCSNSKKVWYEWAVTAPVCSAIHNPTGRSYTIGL
Chain of Methylosome protein 50/Protein arginine N-methyltransferase 5 (Q9BQA1 whole entry): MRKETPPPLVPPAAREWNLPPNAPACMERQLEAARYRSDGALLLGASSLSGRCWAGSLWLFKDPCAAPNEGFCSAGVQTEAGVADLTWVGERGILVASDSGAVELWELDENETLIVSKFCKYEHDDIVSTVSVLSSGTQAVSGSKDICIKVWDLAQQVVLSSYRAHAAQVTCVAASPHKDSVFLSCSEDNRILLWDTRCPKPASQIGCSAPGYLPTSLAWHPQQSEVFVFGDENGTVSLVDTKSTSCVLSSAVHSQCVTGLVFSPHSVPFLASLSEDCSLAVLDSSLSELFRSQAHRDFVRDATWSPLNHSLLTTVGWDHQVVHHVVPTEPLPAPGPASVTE

IC50: 0.033 µM
SMILES: CC(=O)N1CCC(Nc2cc3c(cn2)C2(CC2)CN(C[C@H](O)CN2CCc4ccccc4C2)C3=O)CC1 [US20240116918, Example 1]
